According to article PMC7982426 (Acta Pharmaceutica Sinica. B, 2020):

Target: G protein-coupled receptor 35 (GPR35) (Homo sapiens, UniProt Q9HC97)
Experiment: GPR35 internalization by flow cytometry in NCM460 cells
Assay type: cell-based

Sequence of G protein-coupled receptor 35 (GPR35) (Q9HC97 whole entry): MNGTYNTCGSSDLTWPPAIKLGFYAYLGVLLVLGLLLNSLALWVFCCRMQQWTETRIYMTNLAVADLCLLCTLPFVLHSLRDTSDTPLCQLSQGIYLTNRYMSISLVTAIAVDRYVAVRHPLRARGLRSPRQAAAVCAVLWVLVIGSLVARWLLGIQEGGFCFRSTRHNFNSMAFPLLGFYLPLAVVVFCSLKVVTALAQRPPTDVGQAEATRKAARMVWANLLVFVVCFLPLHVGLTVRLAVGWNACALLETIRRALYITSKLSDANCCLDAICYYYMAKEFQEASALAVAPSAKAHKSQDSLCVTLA

## O=C(O)c1cc(=O)c2ccccc2[nH]1 [KA, kynurenic acid]
  EC50: 46.2 µM
